1 compound from patent publication US9226929B2, “Pharmaceutically active disubstituted triazine derivatives” (Bayer Intellectual Property GMBH, priority 2011, dated 2016) can be followed below.

Molecules are shown by their SMILES.

By IC50 is commonly meant the concentration at which inhibition is half-maximal.

The test concerns cellular CDK9 activity (RNA Polymerase II Ser2 phosphorylation). Put plainly: RNA-Polymerase II Ser2 Cellular Phosphorylation Assay. Conditions: Homo sapiens; HCT-116 cells, normalized with tubulin; read-out: RNA Polymerase II Ser2 Phosphorylation (activity range), IC50. In kind it is cell-based. The procedure:
3.1 RNA-Polymerase II Ser2 Cellular Phosphorylation Assay:
HCT-116 cells (DSMZ, Braunschweig, Germany) were maintained in Mc Coy's cell culture medium+glutamine (PAN Biotech GmbH, Aidenbach, Germany) supplemented with 10% fetal calf serum (PAA Laboratories GmbH, Pasching, Austria) and grown at 37° C., 5% CO2. For the cellular phosphorylation assay, cells were seeded with 2×10^5 cells/well/1 ml in 24-well plates (Greiner Bio One, Frickenhausen, Germany; catalog #662160). The compounds of general formula (I) summarized in Table 6 were diluted from a 10 mM DMSO stock solution 1:10 in a total volume of 15 μL DMSO. After overnight incubation at 37° C./5% CO2, 1.5 μL of a compound diluted in DMSO was added to each sample well. Wells with cells and 0.15% DMSO in culture medium were used as positive controls, wells without cells and 0.15% DMSO in culture medium were used as negative controls. […] Phosphorylation of RNA Polymerase II Ser2 and tubulin levels for normalization were analyzed afterwards with the Multi-Array technology (Meso Scale Discovery, Gaithersburg, Md., USA), a combination of antibody coupled electrochemiluminescence detection and patterned arrays. […] Finally, plates were washed three times with Tris Wash Buffer, 150 μl 2× Read Buffer (Meso Scale Discovery) were added per well and plates were analyzed immediately in a Sector Imager from Meso Scale Discovery. […]

For `NS(=O)(=O)Cc1cccc(Nc2ncnc(N3CCc4ncccc4C3)n2)c1` [Compound B38, 3-[(4-(7,8-Dihydro-1,6-naphthyridin-6(5H)-yl)-1,3,5-triazin-2-yl)amino]-benzenemethanesulfonamide], the half-maximal inhibitory concentration (IC50) was greater than 10 µM.
